{
  "source": "the NIST ThermoML archive (doi:10.1016/j.fluid.2012.04.003)",
  "assay": "wn = mass fraction of the nth substance listed",
  "settings": "101 kPa, Liquid, Vibrating tube method",
  "note": "Numbers after ± are expanded uncertainties.",
  "data": [
    {"compound": "[Cl-].[Na+]", "note": "[sodium chloride] + O", "values": [
      {"measurement": "mass density", "setting": "293.15 K, w1 = 0.02", "result": "1012.4 ± 0.8", "unit": "kg/m3"},
      {"measurement": "mass density", "setting": "293.15 K, w1 = 0.04", "result": "1026.7 ± 0.8", "unit": "kg/m3"},
      {"measurement": "mass density", "setting": "303.15 K, w1 = 0.02", "result": "1012.4 ± 0.8", "unit": "kg/m3"},
      {"measurement": "mass density", "setting": "303.15 K, w1 = 0.04", "result": "1026.7 ± 0.8", "unit": "kg/m3"},
      {"measurement": "mass density", "setting": "313.15 K, w1 = 0.02", "result": "1006.1 ± 0.8", "unit": "kg/m3"}
    ]}
  ]
}
